Test results published in patent US7582618B2 (priority 2002, dated 2009).
“And” between values parts separate entries of the source, which are not always exact repeats. Equal entries are not always repeated. “Also recorded” adds a separate entry of the source.

Legend:
HepG2 cells [1] = experiment: Mitochondrial DNA content (mtDNA/nuclear DNA); assay type: cell-based, human; conditions: 10 μM
Description: To assess the potential of mCyd to produce mitochondrial toxicity, several in vitro studies were conducted using the human hepatoma cell lines HepG2 or Huh7.
• a. HepG2 or huh7 cells were treated with compounds for 4 days, data represent at least three independent experiments • b. HepG2 cells were treated with compounds for 6 and 14 days, data represents at least three independent experiments • c. HepG2 cells were treated with compounds for 14 days • d. 17% cell (11 of 64) contained 1 or 2 enlarged mitochondria out of 25 in two independent experiments nd, not determined

[2] = tested on: BVDV NADL cp in MDBK cells; experiment: Yield reduction assay; assay type: cell-based, bovine viral diarrhea virus
[3] = tested on: BVDV New York-1 ncp in MDBK cells; experiment: Yield reduction assay; assay type: cell-based, bovine viral diarrhea virus
[4] = tested on: BVDV I-NADL cp in MDBK cells; experiment: Yield reduction assay; assay type: cell-based; conditions: Bovine viral diarrhea virus isolates and strains
Description: For each compound the concentration to obtain a 6-log reduction in viral load was determined in duplicate 24-well plates by yield reduction assays. The assay was performed as described by Baginski, S. G.; Pevear, D. C.; Seipel, M.; Sun, S. C. C.; Benetatos, C. A.; Chunduru, S. K.; Rice, C. M. and M. S. Collett “Mechanism of action of a pestivirus antiviral compound” PNAS USA 2000, 97(14), 7981-7986, with minor modifications. Briefly, MDBK cells were seeded onto 24-well plates (2×10^5 cells per well) 24 hours before infection with BVDV (NADL strain) at a multiplicity of infection (MOI) of 0.1 PFU per cell. Serial dilutions of test compounds were added to cells in a final concentration of 0.5% DMSO in growth medium. Each dilution was tested in triplicate. After three days, cell cultures (cell monolayers and supernatants) were lysed by three freeze-thaw cycles, and virus yield was quantified by plaque assay. Briefly, MDBK cells were seeded onto 6-well plates (5×10^5 cells per well) 24 h before use. Cells were inoculated with 0.2 mL of test lysates for 1 hour, washed and overlaid with 0.5% agarose in growth medium. After 3 days, cell monolayers were fixed with 3.5% formaldehyde and stained with 1% crystal violet (w/v in 50% ethanol) to visualize plaques. The plaques were counted to determine the concentration to obtain a 6-log reduction in viral load.

DENV-2 in BHK cells = experiment: Cell protection assay; assay type: cell-based; conditions: Dengue virus, DENV2, DENV-2, BHK
DENV-4 in BHK cells = experiment: Cell protection assay; assay type: cell-based; conditions: Dengue virus, DENV4, DENV-4, BHK
YFV = experiment: microbe, parasite or virus in culture; assay type: cell-based; conditions: Yellow fever virus, read-out: YFV (Table 8b)
DENV 2 = experiment: Antiviral test (Table 8b); assay type: cell-based; conditions: Dengue virus
CVB-4 = experiment: microbe, parasite or virus in culture; assay type: cell-based, Coxsackievirus B-4; conditions: Coxsackievirus, read-out: EC50 CVB-4
CVA-9 = experiment: microbe, parasite or virus in culture; assay type: cell-based, Coxsackievirus A-9; conditions: Coxsackievirus, read-out: EC50 CVA-9
WNV (Vero) = experiment: microbe, parasite or virus in culture; assay type: cell-based; conditions: West Nile virus
YFV (Vero) = experiment: microbe, parasite or virus in culture; assay type: cell-based; conditions: Yellow fever virus
Punta Toro A (LLC-MK2) = experiment: organism not typed; assay type: cell-based
Cytotoxicity (Table 10) [5] = assay type: cell-based; conditions: human, Daudi cells, EBV row
West Nile virus = experiment: microbe, parasite or virus in culture; assay type: cell-based; conditions: read-out: composite EC50 range, West Nile virus
[6] = tested on: different strains of BVDV; experiment: BVDV cell protection, plaque reduction and yield reduction assays, summary over strains; assay type: cell-based; conditions: Bovine viral diarrhea virus isolates and strains, all three assays
BVDV RNA = experiment: Intracellular BVDV RNA by Real Time RT-PCR in de novo-infected MDBK cells; assay type: cell-based; conditions: Bovine viral diarrhea virus isolates and strains, 18-hours post infection
Cytotoxicity assay [7] = conditions: human
Cytotoxicity assay [8] = conditions: mouse
Cytotoxicity (Table 10) [9] = conditions: human, KB cells
[10] = Cytotoxicity (cell proliferation) assay; conditions: rat, H9c2 myocardial cells
HepG2 cells [11] = experiment: Mitochondria toxicity assay, lactic acid production
[12] = Cytotoxicity on uninfected cells in parallel to the CPA; conditions: bovine, uninfected MDBK kidney cells
HepG2 cells [13] = experiment: Transmission electron microscopy of mitochondrial ultrastructure; conditions: 10 μM, 14 days

With CC1(O)C(O)C(CO)OC1n1ccc(N)nc1=O (stereo not shown) [mCyd, 4-Amino-1-(3,4-dihydroxy-5-hydroxymethyl-3-methyl-tetrahydro-furan-2-yl)-1H-pyrimidine-2-one] the “mtDNA/nuclear DNA (% of Control), 6 day Treatment” value (HepG2 cells [1]) was 117.3 ± 17.5 % of Control, the “mtDNA/nuclear DNA (% of Control), 14 day Treatment” value (HepG2 cells [1]) was 99.7 ± 23.9 % of Control and the EC50 ([2]; Bovine viral diarrhea virus isolates and strains, yield reduction, BVDV NADL cp, MDBK) was 2.77 ± 1.16 µM. The EC90 ([2]; Bovine viral diarrhea virus isolates and strains, yield reduction, BVDV NADL cp, MDBK, read-out: Antiviral Efficacy EC90) was 4.8 ± 1.55 µM, the “suppression of de novo BVDV production” value ([2]; yield reduction assay, circa 20 μM) was “up to 6 log10” and the “Antiviral Efficacy EC4 log” value ([2]; yield reduction, BVDV NADL cp, MDBK) was 13.9 ± 3.07 μM. For the same molecule, the “Antiviral Efficacy EC4 log” value [3] was 6.03 ± 1.41 μM, the EC50 ([3]; Bovine viral diarrhea virus isolates and strains) was 0.3 ± 0.07 µM and the EC90 ([3]; Bovine viral diarrhea virus isolates and strains, read-out: Antiviral Efficacy EC90) was 0.87 ± 0.18 µM. For the same molecule, the EC50 [4] was 0.68 µM, the EC90 ([4]; read-out: Antiviral Efficacy EC90) was 1.73 µM and the EC50 (DENV-2 in BHK cells) was 95 µM. The EC50 (DENV-4 in BHK cells) was 59 µM, the EC50 (YFV) was 54 µM and the EC50 (DENV 2) was 95 µM. The EC50 (CVB-4) was 13 µM, the EC50 (CVA-9) was 26 µM and the EC50 (WNV (Vero)) was 46 µM. The EC50 (YFV (Vero)) was 9 to 30 µM, the EC50 (Punta Toro A (LLC-MK2)) was > 200 µM and the CC50 (Cytotoxicity (Table 10) [5]) was > 50 mg/L. It also gave an EC50 (West Nile virus) of 46 to 97 µM, an EC50 ([6]; read-out: range of EC50 values against BVDV) of 0.3 to 2.8 µM and an EC90 ([6]; read-out: range of EC90 values against BVDV) of 0.87 to 4.8 µM. The EC50 (BVDV RNA; read-out: EC50, BVDV RNA levels) was 1.7 µM, the EC90 (BVDV RNA; read-out: EC90, BVDV RNA levels) was 2.3 µM and the CC50 (Cytotoxicity assay [7]; CC50, HFF, HCMV row) was 67 to 73 mg/L. For the same molecule, the CC50 (Cytotoxicity assay [7]; CC50, HFF, HSV-1 row) was > 100 mg/L, the CC50 (Cytotoxicity assay [7]; CC50, HFF, HSV-2 row) was > 100 mg/L and the CC50 (Cytotoxicity assay [7]; CC50, HFF, VZV row) was 67.8 mg/L. The CC50 (Cytotoxicity assay [7]; CC50, rapidly proliferating HFF) was 16.9 µM, the CC50 (Cytotoxicity assay [8]) was 2.4 µM and the CC50 (Cytotoxicity (Table 10) [9]) was > 200 µM and 20 µg/mL to 30 µg/mL. The CC50 at 4 days [10] was > 250 µM, the “L-Lactate (% of Control), HepG2 Cells” value (HepG2 cells [11]; 50 μM, 4 days) was 138.0 ± 8.9 % of Control and the “increase in lactic acid production” value (HepG2 cells [11]; HepG2, 50 μM) was 38%. For the same molecule, the CC50 at 4 days [12] was 38 ± 9 µM, the “Electron Microscopy, Lipid Droplet Form.” value (HepG2 cells [13]) was “Negative” and the “Electron Microscopy, Mito. Morphol.” value (HepG2 cells [13]) was “No changes in cell architecture, or in mitochondrial number or morphology; also recorded: Normal^d”. For the same molecule, the “cells with 1 to 2 enlarged mitochondria out of an average of 25 per cell” value (HepG2 cells [13]) was 17%.
